In the test the test system is MTT (mouse pheochromocytoma). In words: IC50 of cell viability (ATP content). Conditions: (24 or 48 h). In short, it runs like this:
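MTT mouse pheochromocytoma cells (5 µl of 200,000 cells/ml per well, white 1536-well plates, DMEM with 5% FBS and 1% horse serum) were cultured overnight at 37°C, 5% CO2. They then received 23 nl library compound in DMSO by pintool at 8 concentrations (final 0.5 nM to 46 µM) for 24 or 48 hrs. CellTiter-Glo ATP luminescence was read after 15 minutes. Signals were normalised to positive-control (100% inhibition) and DMSO (0%) wells, and IC50 came from a four-parameter logistic fit.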

From the supplement of paper PMC3974653 come the findings set out here.

Where a name gives a salt, the structure may show the parent alone.

Take `Nc1ncnc2c1ncn2[C@@H]1O[C@H](COP(=O)(O)OP(=O)(O)OP(=O)(O)O)[C@@H](O)[C@H]1O` [ADENOSINE TRIPHOSPHATE]: the “IC50 of cell viability” value was above 46 µM.

In the case of `Nc1ncnc2c1ncn2[C@@H]1O[C@H](COP(=O)(O)O)[C@@H](O)[C@H]1O` [ADENOSINE-5'-MONOPHOSPHATE (AMP)], the “IC50 of cell viability” value was above 46 µM.

For `Nc1ncnc2c1ncn2[C@@H]1O[C@H](CO)[C@@H](O)[C@H]1O` [ADENOSINE], the “IC50 of cell viability” value was above 46 µM.

Regarding `CCN(CC)CCOC(=O)C(c1ccccc1)c1ccccc1.Cl` [ADIPHENINE HYDROCHLORIDE], the “IC50 of cell viability” value was above 46 µM.

As for `O=C(C[S+]([O-])C(c1ccccc1)c1ccccc1)NO` (stereo not drawn) [ADRAFINILUM], the “IC50 of cell viability” value is above 46 µM.

Turning to `CCN(CC)CC1CCCCN1CC(=O)N1c2ccccc2C(=O)Nc2cccnc21` (stereo not drawn) [AF-DX 116], the “IC50 of cell viability” value is above 46 µM.

As for `CC(=O)NC(Cc1ccccc1)C(=O)O` (stereo not drawn) [AFALANINUM], the “IC50 of cell viability” value is above 46 µM.

With `Cc1ccccc1N1C(=O)c2cc(N)ccc2N/C1=C\F` [AFLOQUALONE], the “IC50 of cell viability” value was above 46 µM.

Take `CCCCCCCCCCCCCCCCC(C(=O)O)C(O)(CC(=O)O)C(=O)O` (stereo not drawn) [AGARICINUM]: the “IC50 of cell viability” value is above 46 µM.

As for `NC(=O)c1ncn(C2OC(CO)C(O)C2O)c1N` (stereo not drawn) [AICAR], the “IC50 of cell viability” value was above 46 µM.

For the compound `NC(=O)c1ccc([N+](=O)[O-])cc1Cl` [AKLOMIDE], the “IC50 of cell viability” value was above 46 µM.

As for `CC(=O)SC[C@@H](C)C(=O)N1CCC[C@H]1C(=O)N[C@@H](Cc1ccccc1)C(=O)O` [ALACEPRIL], the “IC50 of cell viability” value is above 46 µM.

Regarding `C[C@H](N)C(=O)N[C@@H](C)P(=O)(O)O` [ALAFOSFALINUM], the “IC50 of cell viability” value was above 46 µM.

As to `CC(N)C(=O)OC(C)(C)Cc1ccc(Cl)cc1` (stereo not drawn) [ALAPROCLATE], the “IC50 of cell viability” value was above 46 µM.

On to `C=CCN1C(=O)C(CC(C)C)NC1=S` (stereo not drawn) [ALBUTOINUM], for which the “IC50 of cell viability” value is above 46 µM.

Consider `Cc1ccccc1C(=O)N1CC/C(=N/OS(=O)(=O)[O-])c2ccc(Cl)cc21` [ALILUSEM POTASSIUM], for which the “IC50 of cell viability” value is above 46 µM.

Regarding `O=C1c2ccccc2C(=O)c2c1ccc(O)c2O` [ALIZARIN], the “IC50 of cell viability” value was above 46 µM.

On to `C=CCOc1cc(Cl)ccc1C(=O)NCCN(CC)CC` [ALLOCLAMIDE HYDROCHLORIDE], for which the “IC50 of cell viability” value was above 46 µM.

As to `CN(C)CCc1c[nH]c2ccc(C[S+](=O)([O-])N3CCCC3)cc12` [ALMOTRIPTAN], the “IC50 of cell viability” value is above 46 µM.

For the compound `Cc1[nH]cnc1CN1CCc2c(c3ccccc3n2C)C1=O` [ALOSETRON HYDROCHLORIDE], the “IC50 of cell viability” value was above 46 µM.

For `C=CCc1ccccc1OCC(O)CNC(C)C` (stereo not drawn) [ALPRENOLOL], the “IC50 of cell viability” value was above 46 µM.

In the case of `C=CCSCC1Nc2cc(Cl)c([S+](N)(=O)[O-])cc2[S+](=O)([O-])N1` (stereo not drawn) [ALTHIAZIDE], the “IC50 of cell viability” value is above 46 µM.

`NC12CC3CC(CC(C3)C1)C2` [AMANTIDINE]: the “IC50 of cell viability” value was above 46 µM.

Turning to `CC[N+](CC)(CCNC(=O)C(=O)NCC[N+](CC)(CC)Cc1ccccc1Cl)Cc1ccccc1Cl` [AMBENONIUM], the “IC50 of cell viability” value is above 46 µM.

In the case of `COC(c1ccccc1)(c1ccccc1)C(Oc1nc(C)cc(C)n1)C(=O)O` (stereo not drawn) [AMBRISENTAN], the “IC50 of cell viability” value is above 46 µM.

On to `Nc1c(Br)cc(Br)cc1CNC1CCC(O)CC1` (stereo not drawn) [AMBROXOL HYDROCHLORIDE], for which the “IC50 of cell viability” value is above 46 µM.

`CC(=O)OCC(=O)[C@@]12OC3(CCCC3)OC1CC4C5CCC/6=C/C(=O)/C=C\[C@@]6(C)[C@]5(F)C(O)C[C@@]24C` (stereo partly drawn) [AMCINONIDE]: the “IC50 of cell viability” value was above 46 µM.

Regarding `O=C1NCN(c2ccccc2)C12CCN(CCCOc1ccc(F)cc1)CC2` [AMI-193], the “IC50 of cell viability” value was above 46 µM.

With `N=C(N)NC(=O)c1nc(Cl)c(N)nc1N` [AMILORIDE], the “IC50 of cell viability” value is above 46 µM.

On to `Cc1c(C)n(CCN(C)C)c2ccc(C(=O)OCCN(C)C)cc12` [AMINDOCATUM], for which the “IC50 of cell viability” value is above 46 µM.

Regarding `NCC(O)CC(=O)O` (stereo not drawn) [AMINOHYDROXYBUTYRIC ACID], the “IC50 of cell viability” value is above 46 µM.

In the case of `Cl.NCC(=O)CCC(=O)O` [AMINOLEVULINIC ACID HYDROCHLORIDE], the “IC50 of cell viability” value was above 46 µM.

Regarding `Nc1nc(N)c2nc(CNc3ccc(C(=O)NC(CCC(=O)O)C(=O)O)cc3)cnc2n1` (stereo not drawn) [AMINOPTERIN], the “IC50 of cell viability” value is above 46 µM.

Take `CCN(CC)CCCC(C)Nc1cc(/C=C/c2ccccc2Cl)nc2cc(Cl)ccc12` (stereo not drawn) [AMINOQUINOLUM]: the “IC50 of cell viability” value was above 46 µM.

As for `Cc1cc(N)c2cc(NC(=O)Nc3ccc4nc(C)cc(N)c4c3)ccc2n1` [AMINOQUINURIDUM], the “IC50 of cell viability” value was above 46 µM.

For `Nc1nccs1` [AMINOTHIAZOLE], the “IC50 of cell viability” value is above 46 µM.

With `C[N@+]1([O-])[C@@H]2C[C@H](OC(=O)[C@@H](CO)c3ccccc3)C[C@@H]1[C@H]1O[C@H]12` [AMINOXYSCOPOLAMINE HYDROBROMIDE], the “IC50 of cell viability” value was above 46 µM.

For `CCCCc1oc2ccccc2c1C(=O)c1cc(I)c(OCCN(CC)CC)c(I)c1` [AMIODARONE], the “IC50 of cell viability” value was above 46 µM.

As for `Nc1nc(N)c(-c2ccccc2)s1` [AMIPHENAZOLUM], the “IC50 of cell viability” value was above 46 µM.

As for `CN(C)CCCOC1C(C(O)CO)OC2OC(C)(C)O[C@@H]21.Cl` (stereo partly drawn) [AMIPRILOSE], the “IC50 of cell viability” value is above 46 µM.

On to `Cc1ccc(/N=C/N(C)/C=N/c2ccc(C)cc2C)c(C)c1` [AMITRAZ], for which the “IC50 of cell viability” value is above 46 µM.

On to `CC(C)c1ccc2oc3nc(N)c(C(=O)O)cc3c(=O)c2c1` [AMLEXANOX], for which the “IC50 of cell viability” value is above 46 µM.

Take `CCOC(=O)C\1=C(COCCN)\N\C(=C(/C1C2=CC=CC=C2Cl)C(=O)OC)C.O[S+]([O-])(=O)C3=CC=CC=C3` (stereo not drawn) [AMLODIPINE BESYLATE]: the “IC50 of cell viability” value was above 46 µM.

Take `CCC(C)(C)OC(=O)N[C@@H](Cc1c[nH]c2ccccc12)C(=O)N[C@@H](CCSC)C(=O)N[C@@H](CC(=O)O)C(=O)N[C@@H](Cc1ccccc1)C(N)=O` [AMOGASTRIN]: the “IC50 of cell viability” value is above 46 µM.

On to `CCC(C)(C)c1ccc(CC(C)CN2C[C@@H](C)O[C@@H](C)C2)cc1` (stereo partly drawn) [AMOROLFINE HYDROCHLORIDE], for which the “IC50 of cell viability” value is above 46 µM.

Regarding `ClC1=CC\2=C(OC3=C(C=CC=C3)\N=C2N4CCNCC4)C=C1` [AMOXAPINE], the “IC50 of cell viability” value is above 46 µM.

As for `C[C@H](N)Cc1ccccc1` [AMPHETAMINE ADIPATE], the “IC50 of cell viability” value is above 46 µM.

With `CCCCC/C(C=O)=C/c1ccccc1` [AMYL CINNAMAL], the “IC50 of cell viability” value is above 46 µM.

For `CCCCCc1ccc(C)cc1O` [AMYLMETACRESOL], the “IC50 of cell viability” value was above 46 µM.

As to `Oc1cn2c(n1)Nc1ccc(Cl)c(Cl)c1C2` [ANAGRELIDE HYDROCHLORIDE], the “IC50 of cell viability” value is above 46 µM.

On to `C=C1CCC2[C@](C)(CO)C(O)CC[C@]2(C)C1C/C=C1/C(=O)OCC1O` (stereo partly drawn) [ANDROGRAPHOLIDE], for which the “IC50 of cell viability” value is above 46 µM.

As to `C[C@]12CC[C@H]3[C@@H](CCC/4=C/C(=O)CC[C@]34C)[C@@H]1CCC2=O` [ANDROSTENEDIONE], the “IC50 of cell viability” value was above 46 µM.

Take `CC(=O)OCC(=O)[C@@]1(O)CCC2C3CCC4=CC(=O)CC[C@]4(C)C3=CC[C@@]21C` (stereo partly drawn) [ANECORTAVE ACETATE]: the “IC50 of cell viability” value was above 46 µM.

`COc1ccc(-c2cc(=S)ss2)cc1` [ANETHOLE TRITHIONE]: the “IC50 of cell viability” value was above 46 µM.

As to `COc1ccc(C(=O)N2CCCC2=O)cc1` [ANIRACETAM], the “IC50 of cell viability” value is above 46 µM.

`COc1ccc(C2C(=O)c3ccccc3C2=O)cc1` [ANISINDIONE]: the “IC50 of cell viability” value is above 46 µM.

`CCCC(CCC)C(=O)OC1C[C@H]2CC[C@@H](C1)[N+]2(C)C` (stereo partly drawn) [ANISOTROPINE METHYLBROMIDE]: the “IC50 of cell viability” value is above 46 µM.

On to `Clc1cccc(SC2CCNCC2)n1` [ANPIRTOLINE], for which the “IC50 of cell viability” value is above 46 µM.

On to `[S]=[Sb+]([S-])[S][Sb+](=[S])[S-]` [ANTIMONY PENTASULFIDE], for which the “IC50 of cell viability” value was above 46 µM.

With `CCN(CC)CCOC(=O)C(C)(c1ccccc1)c1ccccc1` [APROFENUM], the “IC50 of cell viability” value was above 46 µM.

For `OCC(O)C(O)C(O)CO` (stereo not drawn) [ARABITOL(D)], the “IC50 of cell viability” value was above 46 µM.

Take `NCC[C@H](O)C(=O)N[C@@H]1C[C@H](N)[C@@H](O[C@H]2O[C@H](CN)CC[C@H]2N)[C@H](O)[C@H]1O[C@H]1O[C@H](CO)[C@@H](O)[C@H](N)[C@H]1O` [ARBEKACIN SULFATE]: the “IC50 of cell viability” value is above 46 µM.

Take `OCC1O[C@H](Oc2ccc(O)cc2)C(O)C(O)C1O` (stereo partly drawn) [ARBUTIN]: the “IC50 of cell viability” value is above 46 µM.

On to `N=C(N)NCCCCNC(=N)N.O=[S+]([O-])(O)O` [ARCAINE SULFATE], for which the “IC50 of cell viability” value is above 46 µM.

Take `COC(=O)\C1=C\CCN(C)C1` [ARECOLINE]: the “IC50 of cell viability” value is above 46 µM.

Take `COc1ccc(CC(C)NCC(O)c2ccc(O)c(NC=O)c2)cc1` (stereo not drawn) [ARFORMOTEROL TARTRATE]: the “IC50 of cell viability” value was above 46 µM.

As to `CC1CNc2c(cccc2S(=O)(=O)NC(CCCNC(=N)N)C(=O)N2CC[C@@H](C)C[C@@H]2C(=O)O)C1` (stereo partly drawn) [ARGATROBAN], the “IC50 of cell viability” value is above 46 µM.

Regarding `CC(C)(C)NC[C@H](O)CSc1nc(-c2ccc(C(N)=O)s2)cs1` [AROTINOLOL HYDROCHLORIDE], the “IC50 of cell viability” value is above 46 µM.
